Measurements published in article PMC5302413, “Bifunctional peptide-based opioid agonist/nociceptin antagonist ligand for dual treatment of nociceptive and neuropathic pain” (Pain, 2016).
Values joined by “and” are separate entries in the source; they are usually repeats but may differ in a detail not shown here. Equal values may be shown once. Where a name gives a salt, the structure may show the parent alone. Numbered stars: 1 amine (or outer) side, 2 acyl side, 3 side chain; on linkers, the order of the positions; unused ones are H or OH. Square brackets hold non-standard residues; d marks the D form. Peptide text beside a SMILES is read from it. X1 = O=C1C(N[*:1])Cc2ccccc2CN1CCC(=O)[*:2]; Dmt = Cc1cc(O)cc(C)c1C[C@H](N)C(=O)O

Assays:
[1] = cited from earlier work; for Blood–brain barrier transport mechanism: in vitro cell-based human model with BBB-PAMPA
[2] = test system: Sprague-Dawley rats; assay: Whole-body plethysmography, respiratory effects in rats; conditions: for Inspiratory time E0 / Inspiratory time Emax / Peak of respiratory effects (time) / TI, AUC method, in comparison to controls / Effect on expiratory time (TE) versus baseline, time-course / Effect on minute volume (VM) versus baseline, time-course: IV; for Inspiratory time E0 / Inspiratory time Emax: rats, TI(Tmax) − TI(T0), sigmoidal Emax model, mean (CV%); for Peak of respiratory effects (time) / TI, AUC method, in comparison to controls: time-course study 3A; for Effect on expiratory time (TE) versus baseline, time-course: KGNOP1 from 5 to 240 min, KGOP1 from 15 to 120 min; for Effect on minute volume (VM) versus baseline, time-course: morphine at 30 min, KGNOP1 from 5 to 45 min, KGOP1 at 15 min; for Time after injection at which significant increase in TI started: IV 17.52 μmol/kg morphine, 17.62 μmol/kg tramadol, 0.34 μmol/kg KGNOP1 or KGOP1
[3] = as above; conditions: Sprague-Dawley, rat, in vivo, iv; for ED50: rats, plethysmography at Tmax, sigmoidal Emax model, mean (CV%)
[4] = cited from earlier work
[5] = molecular target: NOP receptor; parameters: method as in PMID 27035422; conditions: mean ± SEM; read-out: Binding affinity (Ki) NOP receptor; cited from earlier work
[6] = test system: SN-CCI Sprague-Dawley rats; assay: Cold-plate test, cold hyperalgesia in SN-CCI rats; assay type: in vivo, rat; conditions: for Persistence of effects on cold hyperalgesia after injection: IV 0.34 μmol/kg KGNOP1 or KGNOP3 (persisted up to), 17.62 μmol/kg tramadol (declined after), observation 420 min; for Cold hyperalgesia Tmax (time of peak effect): IV 0.34 μmol/kg KGNOP1 or KGNOP3, 17.62 μmol/kg tramadol
Procedure: We used the chronic constriction injury of the sciatic nerve (SN-CCI) model to induce neuropathic pain in rats.[4] The rat's right sciatic nerve was exposed under anesthesia using ketamine (70 mg/kg intraperitoneally [IP]) and xylazine (10 mg/kg IP). Subsequently, the nerve was ligated proximally to the sciatic trifurcation with four 4-0 chromic gut sutures (Ethicon, Issy-les-Moulineaux, France). Rats were then returned to their individual cages for a recovery period of 14 days, allowing complete anesthesia washout and neuropathic pain development.
The individual SN-CCI rats were kept inside a transparent cylinder on the cooled surface of the plate (4.0°C ± 0.2°C; Panlab, Barcelona, Spain).[15] The total leg lift counts of the right hind paw were counted for 5 minutes. Counts were excluded when the hind paw was lifted while walking. The first measurement was performed after a 10-minute period of accommodation while the animal was quiet. Drugs were intravenously (IV) administered at T0. […] The percentage of decrease in leg lift counts was calculated based on the following equation: [drawing 1]
Cold hyperalgesia was assessed during 420 minutes after the drug administration. Tmax was determined for each drug.

[7] = test system: guinea pig ileum (mu-opioid receptor); parameters: method as in PMID 27035422; conditions: mean ± SEM, read-out: Opioid activity (IC50) GPI; cited from earlier work
[8] = molecular target: δ-opioid receptor; parameters: method as in PMID 27035422; conditions: mean ± SEM; read-out: Binding affinity (Ki) δ-opioid receptor; cited from earlier work
[9] = test system: Sprague-Dawley rats; assay: Hot-plate test, thermal nociception in rats; assay type: in vivo, rat; conditions: IV, sigmoidal Emax model
Procedure: The individual rats were kept inside a transparent cylinder on the heated surface of the plate (52.0°C ± 0.2°C; Panlab).[27] Licking, brisk shaking of the hind paw, and jumping were considered as signs of thermal nociception. The cut-off time was set at 60 seconds. The first measurement was performed after a 10-minute period of accommodation while the animal was quiet. Drugs were intravenously (IV) administered at T0. Thermal nociception was recorded at −30, −15, −5, 5, 10, 15, 30, 45, 60, 90, 120, 180, 240, 300, 360, and 420 minutes (study 2A). […] The maximum possible effect (MPE%) was calculated based on the following equation: [drawing 2]
The pharmacological model was applied to the investigated drug effects using the maximum likelihood expectation maximization algorithm implemented in WinNonlin (Version 5.1; Pharsight, Princeton, NJ). A standard error variance model was defined as: [drawing 4] where yi is the ith predicted value from the pharmacological model. All model parameters were assumed to be log-normally distributed. Model selection was based on goodness-of-fit criteria, which included the convergence criterion (CV%), the Akaike information criterion, the estimation criterion value for the maximum likelihood method, and the visual inspection of predicted vs observed and residual plots. Estimated parameters for dose–effect relationships are expressed as mean (CV%).
Thermal nociception was measured during 420 minutes after the drug administration. Tmax was determined for each drug.
Thermal nociception was performed to assess the ED50 at the Tmax previously observed in study 2A.

[10] = test system: Sprague-Dawley rats; assay: Benefit-to-respiratory toxicity ratio (ED50 ratio); conditions: from ED50 on cold hyperalgesia and ED50 on VM, SN-CCI rat, IV
[11] = IV, SN-CCI rats, sigmoidal Emax model, mean (CV%)

CC[C@H](C)[C@H](NC(=O)[C@H](CCCNC(=N)N)NC(=O)[C@H](Cc1ccc(O)cc1)NC(=O)[C@H](Cc1ccc(O)cc1)NC(=O)[C@H](CCCNC(=N)N)NC(=O)CCN1Cc2ccccc2CC(NC(=O)[C@@H](CCCNC(=N)N)NC(=O)[C@@H](N)Cc2c(C)cc(O)cc2C)C1=O)C(=O)N[C@@H](CCCCN)C(N)=O (stereo partly drawn) [KGNOP1, H-Dmt-D-Arg-Aba-βAla-Arg-Tyr-Tyr-Arg-Ile-Lys-NH2] (H-[Dmt][dR][X1]RYYRIK-NH2)
Blood–brain barrier penetration [1]: able to penetrate the blood–brain barrier | Blood–brain barrier transport mechanism [1]: transported by active mechanisms and not through passive diffusion | VT, AUC method, in comparison to morphine-treated rats ([2]; IV 0.34 μmol/kg, P < 0.05): significantly decreased | TE, AUC method, in comparison to morphine- and tramadol-treated rats ([2]; IV 0.34 μmol/kg, P < 0.05 and P < 0.01): significantly decreased | Inspiratory time E0 [2]: 0.06 (13.1) s | Inspiratory time Emax [2]: 0.16 (16.1) s | Peak of respiratory effects (time) [2]: 180 min | TI, AUC method, in comparison to controls [2]: not | Effect on expiratory time (TE) versus baseline, time-course [2]: significantly decreased | Effect on minute volume (VM) versus baseline, time-course [2]: increased | Tmax ([3]; 0.34 μmol/kg): 3 h | ED50 ([3]; Inspiratory time (TI) ED50, IV): 0.63 µmol/kg | ED50 ([3]; Minute volume (VM) ED50, IV): 0.57 µmol/kg | Stability against enzymatic degradation [4]: has stability against enzymatic degradation

CC[C@H](C)[C@H](NC(=O)[C@H](CCCNC(=N)N)NC(=O)[C@H](Cc1ccc(O)cc1)NC(=O)[C@H](Cc1ccc(O)cc1)NC(=O)[C@H](CCCNC(=N)N)NC(C)=O)C(=O)N[C@@H](CCCCN)C(N)=O [KGNOP3, Ac-Arg-Tyr-Tyr-Arg-Ile-Lys-NH2]
Ki [5]: […] | Blood–brain barrier transport mechanism [1]: transported by active mechanisms and not through passive diffusion | Persistence of effects on cold hyperalgesia after injection [6]: up to 420 min | Cold hyperalgesia Tmax (time of peak effect) ([6]; SN-CCI rats): 5 min | Cold hyperalgesia ED50 ([6]; IV, SN-CCI rats, cold-plate test at Tmax, sigmoidal Emax model, mean (CV%)): 0.32 μmol/kg and 0.29 (9) μmol/kg | Cold hyperalgesia E0 (baseline effect) [6, 11]: −20.1 (20.7) % | Cold hyperalgesia Emax [6, 11]: −76 (5.1) %

Cc1cc(O)cc(C)c1C[C@H](N)C(=O)N[C@H](CCCNC(=N)N)C(=O)NC1Cc2ccccc2CN(CCC(N)=O)C1=O (stereo partly drawn) [KGOP1, H-Dmt-D-Arg-Aba-βAla-NH2]
IC50 [7]: 0.8 ± 0.1 nM | Ki [8]: 17 ± 0.3 nM | Blood–brain barrier transport mechanism [1]: transported by active mechanisms and not through passive diffusion | Inspiratory time E0 [2]: 0.029 (9.7) s | Inspiratory time Emax [2]: 0.15 (15.1) s | Peak of respiratory effects (time) [2]: 240 min | TI, AUC method, in comparison to controls [2]: not | Effect on expiratory time (TE) versus baseline, time-course [2]: significantly decreased | Effect on minute volume (VM) versus baseline, time-course [2]: increased | Tmax ([3]; 0.34 μmol/kg): 4 h | ED50 ([3]; Inspiratory time (TI) ED50, IV): 0.52 µmol/kg | ED50 ([3]; Minute volume (VM) ED50, IV): 0.66 µmol/kg

CN1CC[C@]23c4c5ccc(O)c4O[C@H]2[C@@H](O)C=C[C@H]3[C@H]1C5 [Morphine, Morphine sulfate, reference compound]
Time after injection at which significant increase in TI started [2]: 5 min | Effect on tidal volume (VT) versus baseline, time-course ([2]; IV 17.52 μmol/kg, at 5, 90, 120, 180, 240, 300 and 360 min): reduction | Inspiratory time E0 [2]: 0.006 (11.5) s | Inspiratory time Emax [2]: 0.16 (5.9) s | Effect on expiratory time (TE) versus baseline, time-course [2]: did not exhibit significant effects | Effect on minute volume (VM) versus baseline, time-course [2]: decreased | ED50 ([3]; Inspiratory time (TI) ED50, IV): 12.2 µmol/kg | ED50 ([3]; Minute volume (VM) ED50, IV): 10.6 µmol/kg | Thermal nociception Emax ([9]; MPE%, mean (CV%)): 100 (5.1) % | Thermal nociception E0 (baseline effect) ([9]; * fixed value): 0* % | ED50 ([9]; Rattus norvegicus, hot-plate test at Tmax, mean (CV%)): 14.7 µmol/kg

COc1cccc(C2(O)CCCCC2CN(C)C)c1 (stereo not drawn) [Tramadol, Tramadol hydrochloride, reference compound]
Benefit-to-respiratory toxicity ratio, neuropathic pain (ED50 ratio) [10]: 0.24 | Persistence of effects on cold hyperalgesia after injection [6]: 60 min | Cold hyperalgesia Tmax (time of peak effect) ([6]; SN-CCI rats): 5 min | Cold hyperalgesia E0 (baseline effect) [6, 11]: −26.4 (21.6) % | Cold hyperalgesia Emax [6, 11]: −92 (5.6) % | ED50 ([6]; Rattus norvegicus, IV, SN-CCI rats, cold-plate test at Tmax, sigmoidal Emax model, mean (CV%)): 12.1 µmol/kg | Time after injection at which significant increase in TI started [2]: 180 min | VM, AUC method, compared to controls ([2]; IV 17.62 μmol/kg, P < 0.05): significantly decreased | Inspiratory time E0 [2]: 0.006 (14.7) s | Inspiratory time Emax [2]: 0.17 (34.6) s | Peak of respiratory effects (time) [2]: 30 min | TI, AUC method, in comparison to controls [2]: not | Effect on expiratory time (TE) versus baseline, time-course [2]: did not exhibit significant effects | Tmax [3]: 0.5 h | ED50 ([3]; Inspiratory time (TI) ED50, IV): 50.9 µmol/kg | ED50 ([3]; Minute volume (VM) ED50, IV): 50 µmol/kg
